Results: US20230048350A1, “BENZOCOUMARIN AMPK ACTIVATOR COMPOUNDS, COMPOSITIONS, METHODS AND USES THEREOF” (SOCIETE DES PRODUITS NESTLE S.A., priority 2019, published 2023)
“Also recorded” adds a separate entry of the source.

Experiments:
[1] = system: AMPK; experiment: pACC HTRF assay in U-2 OS Flp-In T-REx cells; format: cell-based; settings: 30 mins, varying concentrations, HTRF 665 nm/620 nm ratio
Method: U-2 OS Flp-In T-REx cells were seeded at 50 K in a 96-well plate and left overnight at 37 C in DMEM GlutaMAX (Thermo Fisher Scientific) supplemented with 10% (vol/vol) FBS and 100 U/ml penicillin G, and 100 μg/ml streptomycin. Cells were treated for 30 mins with varying concentrations of Compound 1 in media lacking FBS and then cells were lysed in 50 μl of Cisbio lysis buffer #1 supplemented with blocking solution as per the manufacturer's protocol (Cisbio). Cells were lysed for 30 mins at room temperature before 16 μl of lysate was incubated with 4 μl of the HTRF antibodies (1:40 dilution of the acceptor and donor (p)ACC antibodies, as per the manufacturers protocol). Lysates were incubated overnight with the antibodies before 665 nm/620 nm ratio was determined using a MolecularDevices i3 plate reader (with a HTRF cartridge add-on).
Phosphorylation of ACC is widely used as a cellular indicator of AMPK activity.

[2] = system: AMPK β1 WT; experiment: pACC HTRF assay in AMPKβ1/β2 double knockout U-2 OS cells stably expressing β1 WT; format: cell-based, human; settings: varying concentrations
From the text: (§1) AMPKβ1/β2 double knockout U-2 OS Flp-In™ T-Rex™ cell lines were generated by Horizon Discovery (Cambridge, UK). Cells were genotyped and analysed by western blotting to confirm that there was a complete knockout of AMPKβ1/β2. We took these AMPKβ1/β2 double knockout cells, and re-introduced the expression of human β1 wild-type (WT) or a […] Serine 108 to alanine mutation (S108A). This was achieved using the Flp-In™ system (Invitrogen) present in this cell line and stable cells expressing β1 WT or a β1 S108A mutant were generated according to the manufacturers' protocols. Re-expression of the β1 subunit was confirmed by Western blot analysis.
(§2) Cells stably expressing β1 WT or a β1 S108A mutant were treated with varying concentrations of Compound 1 and subjected to the pACC HTRF (Cisbio) assay to determine the level of phosphorylation of the AMPK substrate, ACC, in cell lysates.
(§3) AMPKβ1/β2 double knockout cells were used and re-introduced the expression of human β1 WT or β2 WT isoforms. […] Cells stably expressing β1 WT or β2 were treated with varying concentrations of Compound 1 and subjected to the pACC HTRF (Cisbio) assay to determine the level of phosphorylation of the AMPK substrate, ACC, in cell lysates, as in Example 1.

[3] = system: AMPK β1 S108A mutant (ADaM-binding site mutant); experiment: pACC HTRF assay in AMPKβ1/β2 double knockout U-2 OS cells stably expressing β1 S108A mutant; format: cell-based, human; settings: varying concentrations
From the text: as §1, §2

[4] = system: AMPK β2 WT isoform; experiment: pACC HTRF assay in AMPKβ1/β2 double knockout U-2 OS cells stably expressing β2 WT; format: cell-based, human; settings: varying concentrations
Method: as §3
This activation profile is characteristic of activators that bind to the ADaM site and consistent with previous studies showing that ADaM-site activators have poorer activation of β2-containing complexes in vitro and in cells.

COc1cc(O)c2c(c1)c(=O)oc1cc(O)ccc12 [Compound 1, 3,10-Dihydroxy-8-methoxy-6H-benzo[c]chromen-6-one]
phosphorylation of the AMPK substrate, ACC (pACC) [1]: increases the phosphorylation of the AMPK substrate, ACC, in a dose-dependent manner | phosphorylation of the AMPK substrate, ACC (pACC); AMPK activation [2]: activates AMPK; also recorded: able to dose-dependently increase pACC | phosphorylation of the AMPK substrate, ACC (pACC); AMPK activation [3]: does not activate AMPK; also recorded: not able to increase pACC | phosphorylation of the AMPK substrate, ACC (pACC); AMPK activation [4]: does not activate AMPK; also recorded: not able to increase pACC
